Data on one compound can be found in patent publication US10414759B2, “Phenylthiazoles and uses thereof” (Purdue Research Foundation, priority 2017, dated 2019).

Values after ≈ are worked out from the molar mass of the structure shown.

The test system of one data set is MRSA (USA300). Put plainly: Time-kill assay. It counts as cell-based, Staphylococcus aureus. The settings on record: 3.0×MIC. The method, then: Aliquots (100 μL) were taken from each sample after 2, 4, 6, 8, 10, 12, and 24 hours, serially diluted in phosphate-buffered saline, and transferred to Trypticase soy agar (TSA) (Becton, Dickinson and Company, Sparks, Md., USA) plates. Plates were incubated at 37° C. for at least 16 hours before counting viable CFU/mL to determine the time required to reduce the bacterial cell count by 3-log10.

For another data set, the system named is MRSA (2658 RCMB). Put plainly: MIC against MRSA (2658 RCMB), broth dilution. It counts as cell-based, Staphylococcus aureus. The settings on record: Staphylococcus aureus; Table 7; initial screening, MRSA (2658 RCMB); read-out: minimum inhibitory concentration (MIC). A digest of the protocol: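 Broth dilution in cation-adjusted Mueller-Hinton broth with an inoculum of about 5×10^5 CFU/mL (from a 0.5 McFarland suspension), using triplicate serial dilutions. MIC was the lowest concentration with no visible growth by visual inspection, reported as the mean of triplicates.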
For orientation: In broth dilution the organism is exposed to a series of concentrations in liquid medium.

The subject of the next data set is S. aureus NRS107. As to the kind of experiment: MIC/MBC S. aureus strains (Table 8). The format is cell-based, Staphylococcus aureus. The settings on record: Staphylococcus aureus; Table 8; S. aureus NRS107. As for the experimental part:
(§1) A bacterial solution equivalent to 0.5 McFarland standard was prepared and diluted in cation-adjusted Mueller-Hinton broth (CAMHB) to achieve a bacterial concentration of about 5×10^5 CFU/mL and seeded in 96-well plates. Enterococcus faecium was diluted in brain heart infusion broth. Enterococcus faecalis, Streptococcus pneumonia and Listeria monocytogenes were diluted in tryptone soya broth (TSB).

Data set [1] has as its system Enterococcus faecalis ATCC 51299 (VRE). Put plainly: MIC/MBC Gram-positive pathogens (Table 9). The settings on record: Table 9, Enterococcus faecalis ATCC 51299 (VRE). The format is cell-based. The method, then: as §1
Data set [2] has as its system Methicillin-resistant Streptococcus pneumoniae ATCC 700677. Put plainly: MIC/MBC Gram-positive pathogens (Table 9). As to conditions: ATCC700677. The format is cell-based. A digest of the protocol:
(§2)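 S. aureus: ~5×10^5 CFU/mL in CAMHB, from 0.5 McFarland suspension. S. pneumoniae: diluted in TSB.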

Data set [3] deals with Cephalosporin-resistant Streptococcus pneumoniae ATCC 51916. As to the kind of experiment: MIC/MBC Gram-positive pathogens (Table 9). It counts as cell-based. The settings on record: ATCC51916. A digest of the protocol: as §2
For data set [4], the system named is human colorectal (Caco-2) cell. Put plainly: In vitro cytotoxicity against Caco-2 cells (MTS). The format is cell-based. The settings on record: at 32 μg/mL. As for the experimental part: Tested compounds were assayed (at concentrations of 16, 32, and 64 μg/mL) against a human colorectal (Caco-2) cell to determine the potential toxic effect to mammalian cells in vitro. Briefly, cells were cultured in Dulbecco's Modified Eagle Medium (DMEM) supplemented with 20% fetal bovine serum (FBS), non-essential amino acids (1×), and penicillin-streptomycin at 37° C. with CO2 (5%). Control cells received DMSO alone at a concentration equal to that in drug-treated cell samples. The cells were incubated with the compounds (in triplicate) in a 96-well plate at 37° C. with CO2 (5%) for two hours. The assay reagent MTS 3-(4,5-dimethylthiazol-2-yl)-5-(3-carboxymethoxyphenyl)-2-(4-sulfophenyl)-2H-tetrazolium) (Promega, Madison, Wis., USA) was subsequently added and the plate was incubated for four hours. Absorbance readings (at OD490) were taken using a kinetic microplate reader (Molecular Devices, Sunnyvale, Calif., USA). The quantity of viable cells after treatment with each compound was expressed as a percentage of the viability of DMSO-treated control cells (average of triplicate wells±standard deviation). The toxicity data was analyzed via a two-way ANOVA, with post hoc Sidak's multiple comparisons test (P<0.05), utilizing GraphPad Prism 6.0 (GraphPad Software, La Jolla, Calif.).

A further data set relates to MRSA USA400 (NRS123). Put plainly: Multi-step resistance selection experiment. It counts as cell-based, Staphylococcus aureus. The settings on record: MRSA USA400, sub-lethal doses, 14 daily passages. The method, then: To determine if MRSA would be capable of forming resistance to the compounds quickly, a multi-step resistance selection experiment was conducted, as described previously. The broth microdilution assay was utilized to determine the MIC of the tested compounds and rifampicin exposed to MRSA USA400 (NRS123) for 14 passages over a period of two weeks. Resistance was classified as a greater than four-fold increase in the initial MIC, as reported elsewhere.

The subject of the next data set is S. aureus ATCC 6538. As to the kind of experiment: MIC/MBC S. aureus strains (Table 8). The format is cell-based. As to conditions: Staphylococcus aureus, ATCC6538. A digest of the protocol:
as §2

Data set [5] is described as follows: In vivo PK in rats after single IV bolus injection. The arrangement: species or system Sprague-Dawley (SD) rats. The method, then: In vivo Pharmacokinetics. Pharmacokinetic studies were performed in male naïve Sprague-Dawley (SD) rats (three animals) following Institutional Animal Care and Use Committee guidelines. An IV bolus of a 5 μM solution of compound 19 was directly administered via tail-vein injection. Blood samples were collected over a 12-hour period post dose into Vacutainer tubes containing EDTA-K2. Plasma was isolated, and the concentration of tested compounds in plasma was determined with LC/MS/MS after protein precipitation with acetonitrile. Two-compartmental pharmacokinetic analysis was performed on plasma concentration data in order to calculate pharmacokinetic parameters.

On to `Cc1nc(-c2ccc(C(C)(C)C)cc2)sc1-c1ccnc(NCCN)n1` [Compound 54, N-(4-(2-(4-(tert-Butyl)phenyl)-4-methylthiazol-5-yl)pyrimidin-2-yl)ethane-1,2-diamine], for which the “bactericidal / bacteriostatic behaviour in time-kill assay, in words” value in the data set with MRSA (USA300) (MRSA) was “rapid bactericidal activity”. In addition, in the data set on MRSA (USA300) (t-butyl series), the “time to completely eradicate the MRSA inoculum” value was “within two to four hours”. Also, the MIC in the data set with MRSA (2658 RCMB) was determined as 1.17 µg/mL (≈ 3.18 µM); in the data set with S. aureus NRS107, 4 µg/mL (≈ 10.9 µM); in data set [1], 16 µg/mL (≈ 43.5 µM); in data set [2] it was 2 µg/mL (≈ 5.44 µM); in the data set on S. aureus ATCC 6538 it was 4 µg/mL (≈ 10.9 µM). The MBC in data set [1] (read-out: MBC), in [2] and in data set [3] was 16 µg/mL (≈ 43.5 µM) throughout. In addition, in data set [4], the “tolerability to human colorectal cells, in words” value is “highly tolerable”. For the same compound, the “increase in MIC by/after the ninth passage” value in the data set on MRSA USA400 (NRS123) is reported as “one-fold”. The compound further returned an AUC in [5] of 3980 ng·h/mL. Moreover, the “CL (clearance)” value in data set [5] was 1.26 L/h. For the same compound, the “Vdss (volume of distribution at the steady state)” value in data set [5] came out at 3.39 L. In addition, in data set [5], the “Vβ (volume of distribution in 2nd compartment, peripheral tissues)” value is 16.36 L. Also, the “t1/2 (half-life)” value in [5] was 9.03 h.

By MBC is commonly meant the smallest concentration meeting the test's criterion for killing. As a reminder, the AUC is the area under the concentration-time curve, a measure of exposure. A low value points to less exposure.
